Test [1] relates to HCT116 cells. Description: Colony-forming assay with γ-radiation (synthetic sickness). It counts as cell-based. The protocol:
(§1) The effect of survival of simultaneous disruption of two proteins was conducted using the clonogenic survival assay. To allow cells time to adhere to the plates, cells were seeded 24 h in advance. Cells were treated with the PNKP inhibitor A12B4C3 for 9-14 consecutive days in triplicate at 0 μM, 0.1 μM, 1 μM, and 10 μM final concentration where 100 cells were plated for the 0 μM, 0.1 μM and 1 μM concentration groups and 300 cells in the 10 μM concentration group. Colonies were then stained with a crystal violet containing 20% methanol for one hour after which the plates were washed in warm water and left to dry overnight. Colonies of 50+ cells were then counted using an automated colony counter (Oxford Optronix, Oxford, UK).
For the indicated colony-forming assays, cells were treated with 0, 1, 2, 4, 6, or 8 Gy of γ-radiation (^60Co Gammacell; Atomic Energy of Canada Limited, Ottawa, Canada).
These HCT116 cells were then subjected to additional testing to determine if disruption of PNKP in PTEN negative cells would hypersensitize these cells to ionizing radiation. These assays to determine ‘synthetic sickness’ were done using […] A12B4C3, which was added to the cells 24 h before irradiation in a colony-forming assay. After one day the cells were subjected to 0, 1, 2, 4, 6, or 8 Gy of γ-radiation. […]

Test [2] relates to Karpas 299 cells (naturally SHP-1−/−). Description: Cell proliferation assay with ALCL cell lines (Alamar Blue), PNKP inhibition. Conditions: Karpas 299 (SHP-1−/−), approximately 10 μM, 12-16 days. Type of test: cell-based. The protocol:
(§2) Karpas 299 or SUPM2 cells were plated in 96-well format at a concentration of 5,000 cells/100 μL in complete RPMI. Increasing concentrations of the PNKP inhibitor A12B4C3 was added to each well at a constant concentration of DMSO and left to incubate for 12-16 days. 11 μL of 440 μM Alamar Blue was then loaded onto the plates and left to incubate for 24-48 hours after which fluorescence was determined as described above.
A general note: Alamar Blue is a resazurin reagent that responds to reducing activity.

Test [3] concerns SUPM2 cells (naturally SHP-1+/+). Described as above. Type of test: cell-based. The note with it: SUPM2 (SHP-1+/+), approximately 10 μM, 12-16 days. The protocol:
as §2

The test system of test [4] is HCT116 PTEN wildtype cells (HCT116 parental and Neo124 vector only). Briefly: Colony forming assay under PNKP inhibition. Type of test: cell-based. Conditions: PTEN proficient HCT116, increasing concentrations. The protocol:
as §1

The subject of test [5] is HCT116 PTEN deleted cells (#22 and #35). Briefly: Colony forming assay under PNKP inhibition. It counts as cell-based. Conditions: PTEN deleted HCT116, increasing concentrations. The protocol: as §1
Test [6] relates to PC3 cells reconstituted with WT PTEN or p.K289E. Briefly: Survival of PC3 cells in response to PNKP inhibition. Type of test: cell-based. The note with it: WT PTEN and p.K289E reconstituted PC3, 12-16 days. The protocol:
as §1
(§3) To investigate the feasibility of taking advantage of the newly identified partnership between PTEN and PNKP, we subjected the prostate cancer cell line, PC3 (naturally PTEN^−/−) to an increasing concentration of the PNKP inhibitor A12B4C3 (3) over a period of 12-16 days.

Test [7] has as its system PC3 cell lines lacking functional PTEN (p.R55fs*1, WT RAD51, p.BABE.puro, p.C124S, PC3 parental). The test is described as above. It counts as cell-based. Conditions: doses ≥10 μM, 12-16 days. The protocol:
as §1, §3

The subject of test [8] is A549(Scramble) and A549δPNKP cells. Briefly: Mode of cell death determination (Hoescht 33342, Ethidium Homodimer III, Annexin V-FITC triple stain). It counts as cell-based, human. Conditions: 100 μM, 24 to 72 hours. The protocol:
A549(Scramble) or A549δPNKP cells were grown on coverslips in complete DMEM/F12 and were either transfected with ASN or SHP-1. Another control subjected these cell lines to 100 μM 5-(p-Bromobenzylidine)-α-isopropyl-4-oxo-2-thioxo-3-thiozolidineacetic acid (BH3I-1, Sigma-Aldrich, Oakville, ON), which is a known apoptosis inducer. The cells were grown under each condition for the indicated length of time before being subjected to a triple stain of Hoescht 33342, Ethidium Homodimer III and Annexin V-FITC (Biotium, Hayward, Calif.). Hoescht 33342 is an uncharged DNA stain that will stain the nuclei of healthy and non-healthy cells alike, however, Ethidium Homodimer III is a highly positively charged DNA stain that cannot readily enter cells unless there is a loss of membrane integrity. […]
To identify the mechanism in which cells undergo synthetic lethality upon simultaneous disruption of SHP-1 and PNKP, A549(Scramble) and A549δPNKP cells were grown on coverslips and transiently transfected with ASN or SHP-1 siRNA (FIGS. 21A and 21C, respectively). […] Cells were then simultaneously stained with Hoescht 33342, EthidiumHomodimer III and Annexin V-FITC, which fluoresce at different wavelengths (absorbance/emission; 350/461 nm, 528/617 nm, and 492/514 nm, respectively). […]

Entries after “also recorded” stand apart in the source; their conditions may differ.

As for `CCCCCCCCCCC(O)C1C=CC2C(=O)N(c3ccccc3)C(=O)C2N1Nc1ccc([N+](=O)[O-])cc1` (stereo not drawn) [A12B4C3, 2-(1-hydroxyundecyl)-1-(4-nitrophenylamino)-6-phenyl-6,7a-dihydro-1H-pyrrolo[3,4-b]pyridine-5,7(2H,4aH)-dione], the “sensitivity to ionizing radiation” value is “increase in sensitivity to ionizing radiation” in test [1] (PNKP independently disrupted (PTEN proficient HCT116), 2 M A12B4C3 added 24 h before 0-8 Gy γ-radiation) and “increase in the sensitivity to ionizing radiation” in test [1] (PTEN negative HCT116, 2 M A12B4C3 added 24 h before 0-8 Gy γ-radiation). Also, the survival result in test [2] is given as “marked decrease in survival”; in test [3], “remain viable”; in test [6], “lethality under PNKP inhibition was rescued”; in test [7] it was “marked decrease in survival”. Further, the entries for the “survival under PNKP inhibition” value in test [4] and in test [5] were “no effect” and “sensitive to PNKP disruption”, respectively.

Consider `CC(C)C(C(=O)O)N1C(=O)C(=Cc2ccc(Br)cc2)SC1=S` (stereo not drawn) [BH3I-1, 5-(p-Bromobenzylidine)-α-isopropyl-4-oxo-2-thioxo-3-thiozolidineacetic acid], for which the apoptotic cells result in test [8] was “substantial increase in the occurrence of apoptotic cells; also recorded: increase in apoptotic cells beginning at 24 hours and continuing on through 72 hours”.
